Our source for the TGI and GI50 values is PubChem BioAssay (NCI).

What all share (test): NCI anticancer screen, dose series, 48 h
Test [1] relates to NCI-H460 lung.
The subject of test [2] is HOP-92 NSCLC.
The test system of test [3] is OVCAR-3 ovarian.
The test system of test [4] is IGROV1 ovarian.
Test [5] relates to K-562 leukemia.
Test [6] deals with HCT-116 colon.
In test [7] the test system is SNB-75 CNS.
Test [8] deals with OVCAR-4 ovarian.
Test [9] relates to RXF 393 renal.
Test [10] concerns SK-MEL-5 melanoma.

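Exposure lasted 48 hours, with cells grown in 96-well plates and compounds tested at five concentrations. GI50 is the concentration that inhibits growth by half. TGI denotes the concentration required for complete inhibition of growth.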

Turning to `Cc1nc(C(N)=O)c(N)n1CCN1CCN(C(=O)CCCCCCCCCCNC2N=CNc3nc[nH]c32)CC1` (configuration not stated), the TGI in [1], in test [2], in test [3], in test [4], in test [5] and in test [6] was more than 100 µM each time.

For `COc1cc(Cl)cc(=O)c(O)c1OC`, the TGI is more than 100 µM in test [1]; more than 100 µM in test [7]; more than 87.2 µM in test [3]; more than 100 µM in [5]; more than 100 µM in test [8]; more than 100 µM in [9]. The same compound had a TGI in test [6] of more than 100 µM.

Turning to `CCc1cccc(C)c1NS(=O)(=O)c1ccccc1`, the TGI in [1], in [7], in [10], in [3], in [4] and in test [5] was more than 100 µM in each case. For the same compound, the TGI in test [8], in test [9] and in test [6] was more than 100 µM in each case.

Turning to `C1CSCCCSCCCSCCCSCCCSCCCSCCCSCCCSC1`, the TGI in test [1], in test [2], in test [10], in [3], in test [4] and in test [5] was more than 100 µM throughout. Moreover, the TGI in test [8], in [9] and in [6] was more than 100 µM throughout.

For `COc1ccc(-c2noc(C(=O)O)c2-c2cc(OC)c(OC)c(OC)c2)cc1`, the GI50 in [1] is 2.52 µM; in [2] it was 3.54 µM; in test [10] it was 1.3 µM; in test [3], 1.71 µM; in test [4] it was 4.91 µM; in test [5], 0.609 µM. The GI50 is 9.53 µM in test [8], 1.94 µM in test [9] and 0.752 µM in test [6]. Also, the TGI in test [1], in [2], in test [10], in [3], in test [4] and in [5] was more than 100 µM each time. Also, the TGI was more than 100 µM in test [8], 6.56 µM in [9] and more than 100 µM in test [6].

In the case of `c1ccc(C2ONC3=NCCN32)cc1` (configuration not stated), the GI50 in [1] is 44.9 µM; in test [7], 53.4 µM; in [10], 0.995 µM; in test [3], 20.5 µM; in test [4], 31.2 µM; in test [5] it was 16.1 µM. Also, the GI50 in test [8] was more than 100 µM; in test [9], 82.9 µM; in test [6], 30.3 µM. The TGI in [1] is more than 100 µM; in [7] it was more than 100 µM; in test [10], 49.6 µM; in test [3] it was 66.3 µM; in [4], more than 100 µM; in [5], more than 100 µM. In addition, the TGI in [8], in test [9] and in test [6] was more than 100 µM each time.

For `CCc1c(C#N)c(=O)[nH]c(=O)n1CCN1CCN(C(=O)NCCCCCCNC(=O)N2CCN(CCn3c(CC)c(C#N)c(=O)[nH]c3=O)CC2)CC1`, the TGI in test [1], in test [10], in [3], in test [4], in test [5] and in test [8] was more than 100 µM in each case. The compound further came in with a TGI in [6] of more than 100 µM.

Turning to `CCSCCCSCCSCC`, the TGI in test [1], in [7], in [10], in [3], in test [4] and in test [5] was more than 100 µM in each case. Moreover, the TGI in test [8] and in [6] was more than 100 µM in each case.

Turning to `CNC(=S)Nc1ccc(OC)c2ccccc12`, the TGI in [7] is more than 10 µM; in [2] it was more than 10 µM; in [10], more than 10 µM; in test [3], 6.72 µM; in test [4] it was more than 10 µM; in test [5] it was more than 10 µM. Also, the TGI in test [8] and in test [6] was more than 10 µM throughout.

Consider `IC[P+]1(c2ccccc2)CCCC1`, for which the TGI in test [1] was 76.9 µM; in [7], 62.7 µM; in [10], 83.1 µM; in [3], more than 100 µM; in [4], more than 100 µM; in test [5], more than 100 µM. In addition, the TGI in test [9] and in [6] was more than 100 µM each time.

Regarding `N#CC(C#N)=C/C=C(\Cl)c1ccc(Cl)cc1`, the GI50 in [1] was 25.1 µM; in test [2] it was 3.81 µM; in test [10], 3.13 µM; in test [3], 6.5 µM; in [4], 7.46 µM; in [5] it was 0.7 µM. The GI50 is 5.12 µM in [8], 7.63 µM in [9] and 1.58 µM in test [6]. The TGI was more than 100 µM in test [1]; 11.4 µM in [2]; 11.5 µM in [10]; 17.4 µM in [3]; 32 µM in test [4]; 55.6 µM in [8]. Also, the TGI was determined as 34.9 µM in test [9] and 3.76 µM in test [6].

For the compound `CN1N=CSC12C(=O)N(c1ccccc1)C(=O)N2c1ccccc1` (configuration not stated), the TGI in test [1], in test [7], in [10], in test [3], in [4] and in [5] was more than 100 µM throughout. Moreover, the TGI in test [8], in test [9] and in test [6] was more than 100 µM throughout.

In the case of `COC(=O)C1=CO[C@@H](OC2CC(CO)C(O)C(O)C2O)[C@@H]2[C@@H](C)[C@@H](OC(=O)/C=C/c3ccccc3)[C@@H](O)[C@H]12` (some centres not stated) (tested in a mixture with another compound), the TGI in [7], in test [2], in [10], in test [3], in test [4] and in [5] was more than 100 µM each time. The TGI in [8] and in test [6] was more than 100 µM in each case.
